Assay results from patent publication US8642765B2, “Azaindole-indole coupled derivatives, preparation methods and uses thereof” (priority 2007, dated 2014).
Read-outs that look alike come from different tables or passages of the source.

Assays:
DU145 tumor cells = test: MTT growth inhibition of DU145 cells, 72 h; assay type: cell-based, human; details: for IC50 / IC90: DU145, 72 h, MTT; for growth inhibitory effects on tumor cells (in words): discussion of the MTT assay, DU145
Description: DU145 cells were inoculated in RPM11640 medium containing 10% calf serum, incubated at 37° C., 5% CO2 in CO2 incubator, and passaged every 2-3 days. In this experiment, cells were grown in logarithmic growth phase.
In the experiment, the cells at logarithmic growth phase were formulated into suspension, and the viability by trypan blue staining was more than 98%. The suspension was divided into several groups: 1 as blank control group (cell suspension); and 2 as experimental groups (cell suspension plus drugs).
(§1) The drugs were formulated into a stock solution in DMSO, and the concentration of the stock solution was 20 mmol (used within 4 hours). In the experiment, the work solution of the drugs was diluted with RPM11640 medium containing 10% calf serum under aseptic condition, to a final concentration of 80 μM. The drug concentrations were increased by 2 times (1.25-20 μM).
(§2) The DU145 cell in logarithmic growth phase were selected, centrifuged, counted, and formulated into a cell suspension (2.5×10^4/ml) with RPM11640 medium containing 10% calf serum. The cell suspension were inoculated into 96-well plates at a density of 5000 cells/200 μl per well, incubated for 24 hours at 37° C., 5% CO2. According to the above concentration of the drug, the cells were inoculated to 6 groups (including one control group), with 8 wells per group. After incubating for 72 hours, the viability of cells was measured by MTT assay. The absorbance value (A) was measured with detection wavelength at 540 nm, reference wavelength at 630 nm. The inhibitory rate (I) was calculated by the following equation, where T was the absorbance value of the experimental groups, and C was the absorbance value of the blank control group: I=(1−T/C)×100%
(§3) The regression equation was calculated by the concentration-inhibitory rate curve, to obtain 50% and 90% inhibition concentration (IC50 and IC90, μM).

[1] = Safety profile (stated in the discussion, no method described); details: discussion of Example 2; no data shown
[2] = Solubility assay in solvents; assay type: physicochemical; details: for solubility in Acetone / solubility in deionized water / solubility in ethanol / solubility in methanol / solubility in petroleum ether (boiling range: 60~90° C.) / solubility in trichlormethane: 5 mg in 2 ml solvent, room temperature (20° C.); for change of lipid solubility / change of water solubility: 129 relative to 91, 91 relative to indirubin
Description: Testing Methods: 5 mg of the compound no. 129 and 91 were respectively added into 2 ml solvent at room temperature (20° C.), and stirred to dissolve.

[3] = system: human leukemia cell line CEM; test: MTT growth inhibition of CEM cells; assay type: cell-based; details: read-out: IC50 (μM) Tumor cells CEM
Description: as §1, §2, §3
(§4) 1. Tumor Cells: human hepatoma cell lines 7701 QGY and HepG-2, human lung adenocarcinoma cell line A549, human chronic myelocytic leukemia cell line K562, human leukemia cell line CEM and mouse melanoma cell line K111.
(§5) 2. Using the methods described in example 2, the biological activity of a portion of newly synthesized 5- or 7-azaindirubin derivatives and 5- or 7-azaisoindigo derivatives (20 compounds) for inhibiting various tumor cells growth were determined.

[4] = system: human hepatoma cell line HepG-2; test: MTT growth inhibition of HepG-2 cells; assay type: cell-based; details: HepG-2, MTT, read-out: IC50 (μM) Tumor cells HepG-2
Description: as §1, §2, §3, §4, §5

[5] = system: mouse melanoma cell line K111; test: MTT growth inhibition of K111 cells; assay type: cell-based; details: Klll, read-out: IC50 (μM) Tumor cells Klll
Description: as §1, §2, §3, §4, §5

[6] = system: human chronic myelocytic leukemia cell line K562; test: MTT growth inhibition of K562 cells; assay type: cell-based; details: read-out: IC50 (μM) Tumor cells K562
Description: as §1, §2, §3, §4, §5

[7] = system: human hepatoma cell line 7701 QGY; test: MTT growth inhibition of 7701 QGY cells; assay type: cell-based; details: read-out: IC50 (μM) Tumor cells 7701 QGY
Description: as §1, §2, §3, §4, §5

[8] = system: human lung adenocarcinoma cell line A549; test: MTT growth inhibition of A549 cells; assay type: cell-based; details: read-out: IC50 (μM) Tumor cells A549
Description: as §1, §2, §3, §4, §5

[9] = Homo sapiens, DU-145, 72 h, Table 5
[10] = Homo sapiens, DU-145, 72 h, Table 6

SMILES | IC50 [3] | IC50 [4] | IC50 [5] | IC50 (DU145 tumor cells; Table 6) | IC90 (DU145 tumor cells; Table 6) | IC50 [6] | IC50 [7] | IC50 [8] | also measured
CC(C)N1C(=O)C(=C2Nc3ccc(Br)cc3C2=NO)c2cnccc21 [Compound 30] |  |  |  |  |  |  |  |  | IC50 (DU145 tumor cells; Table 5): 3.3 µM; IC90 (DU145 tumor cells; Table 5): 7 µM; growth inhibitory effects on tumor cells (in words) (DU145 tumor cells): relatively significant growth inhibitory effects; safety profile [1]: good safety profile
CCN1C(=O)/C(=C2\Nc3ccccc3\C2=N/O)c2ccccc21 [Compound 91, 1-ethyl-indirubin-3′-oxime, reference compound] |  |  |  |  |  |  |  |  | solubility in Acetone [2]: easily soluble; solubility in deionized water [2]: insoluble; solubility in ethanol [2]: dissoluble; solubility in methanol [2]: slightly soluble; solubility in petroleum ether (boiling range: 60~90° C.) [2]: slightly soluble; solubility in trichlormethane [2]: easily soluble; change of lipid solubility [2]: increased; change of water solubility [2]: decreased; IC50 (DU145 tumor cells; [9]): 4.2 µM; IC90 (DU145 tumor cells; [9]): 21.8 µM; IC50 (DU145 tumor cells; [10]): 4.1 µM; IC90 (DU145 tumor cells; [10]): 22 µM
CN1C(=O)C(=C2Nc3ccc(Cl)cc3C2=O)c2cccnc21 [Compound 102] | 7 µM | 41.5 µM | 18.2 µM | 8 µM | 18 µM | 9.5 µM | 39.5 µM | 22.8 µM | 
CC(C)N1C(=O)C(=C2Nc3ccc(Br)cc3C2=O)c2cccnc21 [Compound 105] | 8 µM | 32 µM | 11.9 µM | 8.1 µM | 28.5 µM | 19 µM | 13.4 µM | 24.1 µM | 
CC(C)N1C(=O)C(=C2Nc3ccc(Cl)cc3C2=O)c2cccnc21 [Compound 106] | 10.2 µM | 18 µM | 14 µM | 18.5 µM | 100 µM | 20.4 µM | 28 µM | 19.6 µM | 
O=C1C(=C2C(=O)N(Cc3ccccc3)c3ncccc32)Nc2ccc(Br)cc21 [Compound 109, 1-benzyl-5′-bromo-7-azaindirubin] | 9 µM | 21.2 µM | 18.6 µM | 7 µM | 24 µM | 12.5 µM | 10 µM | 15.8 µM | 
CNc1cnc2c(c1)C(=C1Nc3ccc(F)cc3C1=O)C(=O)N2Cc1ccccc1 [Compound 111] | 11 µM | 17 µM | 15.1 µM | 7.4 µM | 34 µM | 15 µM | 28.5 µM | 24.3 µM | 
CN1C(=O)C(=C2Nc3ccc(Cl)cc3C2=NO)c2cccnc21 [Compound 116] | 5.6 µM | 20.5 µM | 6.3 µM | 6.9 µM | 16 µM | 8.2 µM | 11.1 µM | 12.5 µM | growth inhibitory effects on tumor cells (in words) (DU145 tumor cells): relatively significant growth inhibitory effects
CCN1C(=O)C(=C2Nc3ccc(Br)cc3C2=NO)c2cccnc21 [Compound 119] | 9 µM | 8.1 µM | 8.1 µM | 4 µM | 12 µM | 7.9 µM | 13.5 µM | 8.5 µM | 
CN1C(=O)C(=C2Nc3ccccc3C2=NO)c2cccnc21 [Compound 128] | 10.5 µM | 12.6 µM | 3.6 µM | 2.7 µM | 7.1 µM | 7.7 µM | 7.6 µM | 10 µM | 
CCN1C(=O)/C(=C2\Nc3ccccc3\C2=N/O)c2cccnc21 [Compound 129] |  |  |  |  |  |  |  |  | IC50 ([3]; Homo sapiens, CCRF-CEM): 7 µM; IC50 ([4]; Homo sapiens, HepG2): 13 µM; IC50 ([5]; Mus musculus): 4.2 µM; solubility in Acetone [2]: slightly soluble; solubility in deionized water [2]: slightly soluble; solubility in ethanol [2]: slightly soluble; solubility in methanol [2]: soluble; solubility in petroleum ether (boiling range: 60~90° C.) [2]: insoluble; solubility in trichlormethane [2]: slightly soluble; change of lipid solubility [2]: decreased; change of water solubility [2]: increased; IC50 (DU145 tumor cells; [10]): 3.8 µM; IC90 (DU145 tumor cells; [10]): 12 µM; IC50 ([6]; Homo sapiens): 3.4 µM; IC50 ([7]; Homo sapiens): 7.4 µM; IC50 ([8]; Homo sapiens): 14.1 µM
CN1C(=O)C(=C2C(=O)Nc3ccc(F)cc32)c2cccnc21 [Compound 154] | 9.8 µM | 29.3 µM | 12 µM | 43 µM | > 100 µM | 19 µM | 36 µM | 12.4 µM | 
CC(=O)OCC1OC(N2C(=O)C(=C3C(=O)Nc4ccccc43)c3cc(C)cnc32)C(OC(C)=O)C1OC(C)=O (centres unmarked) [Compound 158] | 12 µM | 18 µM | 8.3 µM | 10.5 µM | 49 µM | 5.8 µM | 44 µM | 22.3 µM | 
CCN1C(=O)C(=C2C(=O)N(CC)c3ncccc32)c2cc(Br)ccc21 [Compound 160] | 10.8 µM | 31.1 µM | 15 µM | 14 µM | 61 µM | 10.2 µM | 25.4 µM | 29.1 µM | 
CC(C)N1C(=O)C(=C2C(=O)Nc3ccccc32)c2cccnc21 [Compound 164, 1-isopropyl-7-azaisoindigo] | 12.7 µM | 29 µM | 9.1 µM | 9.05 µM | 19 µM | 18.6 µM | 33.1 µM | 23.3 µM | 
CCCCN1C(=O)C(=C2C(=O)Nc3ccc(Br)cc32)c2cccnc21 [Compound 170] | 8.5 µM | 25 µM | 18.5 µM | 15 µM | 90 µM | 10.3 µM | 28 µM | 19.5 µM | 
